In article PMC9443684 (RSC Advances, 2022):

What was measured:
MCF-7 cancer cell line = assay: MTT assay, anticancer activity against MCF-7; format: cell-based; conditions: Homo sapiens; for inhibition at 10 µM: MCF7, read-out: Cell growth inhibition (GI%); for IC50: MCF7, 48 h, read-out: Anticancer activity IC50
HepG2 cancer cell line = assay: MTT assay, anticancer activity against HepG2; format: cell-based; conditions: Homo sapiens; for inhibition at 10 µM: HepG2, read-out: Cell growth inhibition (GI%); for IC50: HepG2, 48 h, read-out: Anticancer activity IC50
HCT-116 cancer cell line = assay: MTT assay, anticancer activity against HCT-116; format: cell-based; conditions: Homo sapiens; for inhibition at 10 µM: HCT-116, read-out: Cell growth inhibition (GI%); for IC50: HCT-116, 48 h, read-out: Anticancer activity IC50
COX-1 = molecular target: T1, COX-1 (Ovis aries, UniProt P05979); assay: In vitro cyclooxygenase; format: biochemical, ovine
T1 sequence (P05979 25-600): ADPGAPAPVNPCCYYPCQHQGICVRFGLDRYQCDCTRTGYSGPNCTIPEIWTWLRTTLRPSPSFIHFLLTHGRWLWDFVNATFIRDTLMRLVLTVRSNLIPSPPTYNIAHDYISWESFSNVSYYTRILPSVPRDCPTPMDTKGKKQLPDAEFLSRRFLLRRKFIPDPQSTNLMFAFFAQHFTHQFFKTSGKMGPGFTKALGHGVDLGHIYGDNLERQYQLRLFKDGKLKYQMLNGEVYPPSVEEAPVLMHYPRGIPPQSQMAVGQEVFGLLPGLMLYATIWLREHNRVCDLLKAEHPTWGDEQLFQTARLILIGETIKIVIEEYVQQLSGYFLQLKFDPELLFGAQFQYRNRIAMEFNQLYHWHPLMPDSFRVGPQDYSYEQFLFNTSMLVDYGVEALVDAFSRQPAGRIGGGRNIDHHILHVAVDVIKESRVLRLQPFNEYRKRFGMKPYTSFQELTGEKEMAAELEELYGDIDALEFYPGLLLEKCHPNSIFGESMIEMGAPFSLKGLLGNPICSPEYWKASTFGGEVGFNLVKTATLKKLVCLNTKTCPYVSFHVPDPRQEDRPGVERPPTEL

COX-2 = molecular target: T2, COX-2 (Ovis aries, UniProt P79208); assay: In vitro cyclooxygenase; format: biochemical, ovine; conditions: for SI (selectivity index): IC50 (COX-1)/IC50 (COX-2)
T2 sequence (P79208 17-603): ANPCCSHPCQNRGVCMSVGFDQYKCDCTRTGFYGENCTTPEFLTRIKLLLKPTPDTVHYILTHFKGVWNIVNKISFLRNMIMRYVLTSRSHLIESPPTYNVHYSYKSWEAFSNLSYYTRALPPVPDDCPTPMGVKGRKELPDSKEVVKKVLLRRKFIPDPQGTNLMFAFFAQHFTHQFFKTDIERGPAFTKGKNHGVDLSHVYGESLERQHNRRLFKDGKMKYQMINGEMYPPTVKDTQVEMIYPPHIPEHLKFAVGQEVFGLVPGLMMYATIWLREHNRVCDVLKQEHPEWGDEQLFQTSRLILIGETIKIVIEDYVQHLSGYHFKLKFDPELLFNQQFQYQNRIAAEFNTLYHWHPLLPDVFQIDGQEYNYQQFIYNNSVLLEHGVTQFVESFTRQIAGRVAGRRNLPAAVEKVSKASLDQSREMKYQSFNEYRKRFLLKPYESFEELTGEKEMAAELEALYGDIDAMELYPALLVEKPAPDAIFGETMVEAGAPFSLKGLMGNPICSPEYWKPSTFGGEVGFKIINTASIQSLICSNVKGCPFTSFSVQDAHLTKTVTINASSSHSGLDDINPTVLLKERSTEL

EGFR = EGFR (Homo sapiens, UniProt P00533); assay: In vitro EGFR-TK inhibition assay; format: biochemical
EGFR, sequence (P00533 25-1210): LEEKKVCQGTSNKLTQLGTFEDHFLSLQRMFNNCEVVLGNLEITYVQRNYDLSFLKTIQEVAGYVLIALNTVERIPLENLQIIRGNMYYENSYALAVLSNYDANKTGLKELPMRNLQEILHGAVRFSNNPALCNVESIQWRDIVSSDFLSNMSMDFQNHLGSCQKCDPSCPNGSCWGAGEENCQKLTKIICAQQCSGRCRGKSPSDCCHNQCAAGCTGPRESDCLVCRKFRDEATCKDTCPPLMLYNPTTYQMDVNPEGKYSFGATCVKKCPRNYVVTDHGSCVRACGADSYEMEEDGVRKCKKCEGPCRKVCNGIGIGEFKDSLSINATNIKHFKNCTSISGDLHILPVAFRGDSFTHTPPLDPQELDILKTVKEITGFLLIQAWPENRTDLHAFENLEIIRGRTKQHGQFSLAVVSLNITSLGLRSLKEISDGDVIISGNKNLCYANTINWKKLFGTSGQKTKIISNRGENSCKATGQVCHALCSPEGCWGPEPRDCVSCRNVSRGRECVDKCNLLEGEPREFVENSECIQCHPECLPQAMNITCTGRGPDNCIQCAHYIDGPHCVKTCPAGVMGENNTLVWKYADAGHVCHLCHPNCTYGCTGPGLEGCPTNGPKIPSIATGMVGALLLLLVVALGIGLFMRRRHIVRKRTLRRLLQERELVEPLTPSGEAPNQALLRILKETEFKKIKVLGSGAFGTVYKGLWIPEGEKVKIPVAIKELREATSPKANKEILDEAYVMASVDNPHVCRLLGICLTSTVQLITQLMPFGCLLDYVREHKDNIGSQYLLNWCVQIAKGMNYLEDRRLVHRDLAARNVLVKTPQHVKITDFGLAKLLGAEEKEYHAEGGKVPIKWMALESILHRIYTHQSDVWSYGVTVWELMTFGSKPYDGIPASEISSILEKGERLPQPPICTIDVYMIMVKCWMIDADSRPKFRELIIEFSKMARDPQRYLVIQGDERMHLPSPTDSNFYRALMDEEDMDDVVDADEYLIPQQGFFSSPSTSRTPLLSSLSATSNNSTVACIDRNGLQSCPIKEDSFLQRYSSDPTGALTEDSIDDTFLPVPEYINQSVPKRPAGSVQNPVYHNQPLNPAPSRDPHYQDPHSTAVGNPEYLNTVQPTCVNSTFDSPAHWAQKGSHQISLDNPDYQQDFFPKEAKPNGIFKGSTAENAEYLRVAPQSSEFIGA

[1] = test system: MCF-7, HepG2 and HCT-116 cancer cell lines; assay: MTT assay, statements over the three cancer cell lines together; format: cell-based; conditions: for IC50: read-out: Anticancer activity IC50 against the three cancer cell lines; for inhibition at 10 µM: read-out: Growth inhibition against the three cancer cell lines

| SMILES | inhibition at 10 µM (MCF-7 cancer cell line) | inhibition at 10 µM (HepG2 cancer cell line) | inhibition at 10 µM (HCT-116 cancer cell line) | IC50 (MCF-7 cancer cell line) | IC50 (HepG2 cancer cell line) | IC50 (HCT-116 cancer cell line) | IC50 (COX-1) | IC50 (COX-2) | SI (selectivity index) (COX-2) | IC50 (EGFR) | IC50 [1] | inhibition at 10 µM [1] |
| --- | --- | --- | --- | --- | --- | --- | --- | --- | --- | --- | --- | --- |
| CN1c2ccccc2N=C(C(=O)NN)C1N=N (stereo not drawn) [Compound 10, 3-Diazenyl-4-methyl-3,4-dihydroquinoxaline-2-carbohydrazide] | 49.8 ± 0.86% | 52.4 ± 0.69% | 86.6 ± 1.31% | – | – | – | – | – | – | – | – | – |
| C/C(=N\NC(=O)c1nc2ccccc2n(C)c1=O)c1cc2ccccc2oc1=O [Compound 5, (E)-4-Methyl-3-oxo-N′-(1-(2-oxo-2H-chromen-3-yl)ethylidene)-3,4-dihydroquinoxaline-2-carbohydrazide] | 91.47 ± 0.25% | 90.79 ± 0.21% | 93.75 ± 0.29% | 3.21 ± 0.1 µM | 3.62 ± 0.21 µM | 3.46 ± 0.15 µM | 40.3 ± 3.35 µM | 0.83 ± 0.4 µM | 48.58 | 0.9 ± 0.01 µM | 3.21 to 4.54 µM | ≥ 88.7% |
| COc1cccc2c1C(=O)c1c(O)c3c(c(O)c1C2=O)C[C@@](O)(C(=O)CO)C[C@@H]3O[C@H]1C[C@H](N)[C@H](O)[C@H](C)O1 [Doxorubicin, doxorubicin, reference compound] | – | – | – | 0.9 ± 0.02 µM | 1.21 ± 0.08 µM | 0.51 ± 0.03 µM | – | – | – | – | – | – |
| Cn1c(=O)c(C(=O)NN=Cc2ccccc2)nc2ccccc21 [Compound 2a, N′-benzylidene-4-methyl-3-oxo-3,4-dihydroquinoxaline-2-carbohydrazide] | 82.85 ± 0.49% | 89.21 ± 0.63% | 69.25 ± 0.45% | – | – | – | – | – | – | – | – | – |
| Cn1c(=O)c(C(=O)NNC(=O)CC(=O)c2ccccc2)nc2ccccc21 [Compound 11, 4-Methyl-3-oxo-N′-(3-oxo-3-phenylpropanoyl)-3,4-dihydroquinoxaline-2-carbohydrazide] | 92.57 ± 0.43% | 92.78 ± 0.38% | 97.63 ± 0.16% | 2.91 ± 0.23 µM | 2.41 ± 0.07 µM | 2.38 ± 0.26 µM | 38 ± 0.66 µM | 0.62 ± 0.07 µM | 61.23 | 0.6 ± 0.04 µM | 0.81 to 2.91 µM | ≥ 88.7% |
| Cn1c(=O)c(C(=O)N/N=C/c2ccc3c(c2)OCO3)nc2ccccc21 [Compound 2d, (E)-N′-(benzo[d][1,3]dioxol-5-ylmethylene)-4-methyl-3-oxo-3,4-dihydroquinoxaline-2-carbohydrazide] | 50.14 ± 0.46% | 56.95 ± 0.35% | 59.5 ± 0.78% | – | – | – | – | – | – | – | – | – |
| Cn1c(=O)c(-c2nnco2)nc2ccccc21 [Compound 14, 1-Methyl-3-(1,3,4-oxadiazol-2-yl)quinoxalin-2(1H)-one] | 29.3 ± 0.63% | 25.7 ± 1.67% | 33.3 ± 1.32% | – | – | – | – | – | – | – | – | – |
| CN1C(=O)/C(=N\NC(=O)c2nc3ccccc3n(C)c2=O)c2ccccc21 [Compound 4b, (Z)-4-Methyl-N′-(1-methyl-2-oxoindolin-3-ylidene)-3-oxo-3,4-dihydroquinoxaline-2-carbohydrazide] | 61.47 ± 0.37% | 52.4 ± 0.74% | 59.46 ± 0.27% | – | – | – | – | – | – | – | – | – |
| Cn1c(=O)c(-c2n[nH]c(=S)o2)nc2ccccc21 [Compound 15, 1-Methyl-3-(5-thioxo-4,5-dihydro-1,3,4-oxadiazol-2-yl)quinoxalin-2(1H)-one] | 43.5 ± 0.63% | 59.5 ± 1.92% | 76.3 ± 1.22% | – | – | – | – | – | – | – | – | – |
| Cc1cc(C)n(C(=O)c2nc3ccccc3n(C)c2=O)n1 [Compound 12, 3-(3,5-Dimethyl-1H-pyrazole-1-carbonyl)-1-methylquinoxalin-2(1H)-one] | 33.5 ± 0.82% | 53.8 ± 1.38% | 49.2 ± 1.23% | – | – | – | – | – | – | – | – | – |
| Cn1c(=O)c(C(=O)N/N=C/c2ccc(Cl)cc2)nc2ccccc21 [Compound 2b, (E)-N′-(4-chlorobenzylidene)-4-methyl-3-oxo-3,4-dihydroquinoxaline-2-carbohydrazide] | 95.5 ± 1.25% | 90.76 ± 0.29% | 88.68 ± 0.52% | 15.98 ± 0.06 µM | 12.41 ± 0.05 µM | 16.3 ± 0.24 µM | 4.42 ± 1.67 µM | 5.26 ± 0.49 µM | 0.84 | – | > 10 µM | – |
| CC(=O)C/C(=N/NC(=O)c1nc2ccccc2n(C)c1=O)c1ccccc1 [Compound 9, (Z)-4-methyl-3-oxo-N′-(3-oxo-1-phenylbutylidene)-3,4-dihydroquinoxaline-2-carbohydrazide] | 92.97 ± 0.54% | 96.83 ± 0.29% | 97.89 ± 0.69% | 6.84 ± 0.07 µM | 5.54 ± 0.27 µM | 8.75 ± 0.25 µM | 38.7 ± 1.27 µM | 2.21 ± 0.14 µM | 17.52 | – | – | ≥ 88.7% |
| Cn1c(=O)c(C(=O)N/N=C/C(O)C(O)C(O)C(O)CO)nc2ccccc21 (stereo not drawn) [Compound 7, (E)-4-Methyl-3-oxo-N′-(2,3,4,5,6-pentahydroxyhexylidene)-3,4-dihydroquinoxaline-2-carbohydrazide] | 10.3 ± 0.48% | 26.4 ± 0.83% | 33.9 ± 1.27% | – | – | – | – | – | – | – | – | – |
| Cn1c(=O)c(C(=O)NNC(=S)Nc2ccccc2)nc2ccccc21 [Compound 13, 2-(4-Methyl-3-oxo-3,4-dihydroquinoxaline-2-carbonyl)-N-phenylhydrazine-carbothioamide] | 95.39 ± 0.27% | 96.75 ± 0.29% | 97.87 ± 0.19% | 0.81 ± 0.13 µM | 0.96 ± 0.09 µM | 1.12 ± 0.19 µM | 30.4 ± 1.63 µM | 0.46 ± 0.06 µM | 66.11 | 0.4 ± 0.02 µM | 0.81 to 2.91 µM | ≥ 88.7% |
| Cn1c(=O)c(C(=O)N/N=C/C(O)C(O)C(O)CO)nc2ccccc21 (stereo not drawn) [Compound 6, (E)-4-Methyl-3-oxo-N′-(2,3,4,5-tetrahydroxypentylidene)-3,4-dihydroquinoxaline-2-carbohydrazide] | 10.8 ± 0.76% | 21.4 ± 0.52% | 41.8 ± 1.27% | – | – | – | – | – | – | – | – | – |
| Cn1c(=O)c(C(=O)NN=Cc2ccc(O)cc2)nc2ccccc21 [Compound 2c, N′-(4-hydroxybenzylidene)-4-methyl-3-oxo-3,4-dihydroquinoxaline-2-carbohydrazide] | 69.72 ± 0.46% | 77.95 ± 0.56% | 61.92 ± 0.55% | – | – | – | – | – | – | – | – | ≥ 88.7% |
| Cn1c(=O)c(C(=O)N/N=C2\C(=O)Nc3ccccc32)nc2ccccc21 [Compound 4a, (Z)-4-Methyl-3-oxo-N′-(2-oxoindolin-3-ylidene)-3,4-dihydroquinoxaline-2-carbohydrazide] | 90.14 ± 0.76% | 91.82 ± 0.35% | 92.79 ± 0.15% | 4.42 ± 0.12 µM | 4.23 ± 0.09 µM | 4.54 ± 0.19 µM | 28.8 ± 1.02 µM | 1.17 ± 0.15 µM | 24.61 | 0.3 ± 0.01 µM | 3.21 to 4.54 µM | ≥ 88.7% |
